Experimental data published in patent US20100221709A1, “METHODS FOR IDENTIFYING AGENTS THAT MODULATE APOPTOSIS IN CELLS THAT OVER-EXPRESS A BCL-2 FAMILY MEMBER PROTEIN” (priority 2005, published 2010).

Experiments:
[1] = tested on: TABX1A cells (Bcl-xL antisense); experiment: Cell viability by trypan blue dye exclusion; details: 2 μg/ml, without fructose, six hours
From the text: Briefly, a DNA fragment encoding the full-length mouse Bcl-xL cDNA was isolated from the plasmid pBS-BCL-xL (Tzung et al., Am. J. Path. 150:1985-1995 (1997), incorporated herein by reference in its entirety) by digestion with the restriction endonuclease EcoRI. This EcoRI fragment was cloned into the EcoRI site of the mammalian expression vector pSFFV (Fuhlbrigge et al., Proc. Nat. Acad. Sci. USA 85:5649-5653 (1988)) in both sense and antisense orientations, to form expression plasmids pSFFV-Bc/-xL-WT(sense) or pSFFV-Bc/-xL(antisense), respectively. The tumorigenic murine hepatocyte cell line TAMH was transfected by lipofection (Lipofectamine, Life Technologies, Rockville, Md., according to the manufacturer's recommendations) with the plasmids pSFFV-neo (the control), pSFFV-Bc/-xL-WT(sense) or pSFFV-Bc/-xL(antisense). Characterization of and culture conditions for the cell lines have been previously published (Wu et al., Proc. Nat. Acad. Sci. USA 91:674-78 (1994); Wu et al., Cancer Res. 54:5964-5973 (1994)). Transfectants were selected for the acquisition of neomycin resistance by growing cells in the presence of 750 μg/ml of G418. Bulk transfectants were cloned by limiting dilution and individual clones were screened by immunoblot analysis to determine the level of Bcl-xL, protein expression as described below.
Selected transfectants were then tested for whole cell sensitivity to several apoptotic agents. Transfected cells were cultured to reach approximately 80% confluency prior to plating an equal number of cells from selected clones on 12-well tissue culture plates. The transplanted cells were treated with the following apoptotic agents: 5 μM doxorubicin for 48 hours; 5 μM cisplatin for 48 hours; or with 200 U/ml tumor necrosis factor (TNF) plus 1 μg/ml actinomycin D for 18 hours. Cell viability was determined by trypan blue dye exclusion. The percentage of viable cells was calculated by the number of viable cells (treated with a particular apoptogenic agent) divided by the number in the control group (untreated). […]

[2] = tested on: myeloma cell lines (RPMI-8226, U266, NCI-H929); assay type: cell-based, human; details: 5 to 20 μg/ml
Description: Cell survival was assayed by exclusion of propidium iodide (PI) (10 mg/ml) by unfixed cells. Annexin V-FITC (Pharmingen) or 3,3′-dihexyloxacarbocyanine iodide (DiOC6(3)) (Molecular Probes) staining was analyzed together with PI to discriminate early apoptotic cells. Apoptotic cells were also measured as sub-G1 events among ethanol-fixed cells stained with […] PI. All cell samples were analyzed using a benchtop FACSCalibur® (Becton Dickinson, San Jose, Calif.) flow cytometer. Flow data were analyzed using MultiCycle AV software (Phoenix Flow Systems). For intracellular pH measurements, cell pellets were washed once and resuspended in 2 ml of HEPES-buffered medium (no phenol red and no serum). Carboxy-SNARF®-1 acetoxymethyl (AM) ester (Molecular Probes, 1 mM stock in DMSO, stored at −20° C.), a long wavelength fluorescent pH indicator, was added to a final concentration of 10 μM, and the cells were incubated for 30 min at 37° C. Following incubation with SNARF®-1 AM, cells were sedimented and the pellets were held on ice. Immediately before analysis, pellets were resuspended in Earle's balanced salt solution (experimental buffer) or high-[K^+] buffer containing nigericin (calibration samples).

[3] = tested on: RPMI-8226 myeloma cells; experiment: [3H]-thymidine incorporation; assay type: cell-based, human
Description: (§1) RPMI-8226 cells were grown in 96 well plates for 24 h prior to addition of 2-methoxy antimycins. Antimycin stocks in dimethyl sulfoxide (DMSO) were serially diluted in RPMI. Cells were incubated for 48 h with compounds at final compound concentrations ranging from 10^−4 to 10^−8 M. MTT cell proliferation assays were performed in quadruplicate and percent growth inhibitions were calculated as (A570 (control cells)-A570 (treated cells))/A570 (control cells). GI50 was extrapolated from semi-log plots of the dose response for each compound. […] After 72 h drug exposures, 1 μCi/ml [^3H]-thymidine was added to wells. Cells were incubated for an additional 24 h, and then transferred to GF/C filter plates (Packard) using a plate washer. Filters were dried, added to scintillant, and counted in a TopCount® scintillation counter (Packard). Drug response is expressed as the percentage of vehicle-treated controls, and each value shown is the average of three determinations.

[4] = tested on: NCI-H929 myeloma cells; experiment: [3H]-thymidine incorporation; assay type: cell-based, human
Description: as §1

[5] = tested on: U266 myeloma cells; experiment: [3H]-thymidine incorporation; assay type: cell-based, human
Description: as §1

Substance: antimycin A
- survival [1]: 87%
- cytotoxicity, PI exclusion [2]: sensitive
- 50% growth inhibition (GI50) [3]: 100 ng/mL
- 50% growth inhibition (GI50) [4]: 200 ng/mL
- 50% growth inhibition (GI50) [5]: 50 ng/mL
